The source made the active and inactive calls. The rule behind the calls is not given here.
Key:
[1] = molecular target: Homoisocitrate dehydrogenase, mitochondrial (Saccharomyces cerevisiae S288c) (UniProt P40495); assay: Activity of recombinant Saccharomyces cerevisiae homoisocitrate dehydrogenase expressed in Escherichia coli Rosetta cells above 10 mM
Deinococcus radiodurans [2] = assay: Activity of Deinococcus radiodurans homoisocitrate dehydrogenase above 10 mM
Deinococcus radiodurans [3] = assay: Ratio of kcat/km of Deinococcus radiodurans homoisocitrate dehydrogenase
Deinococcus radiodurans [4] = assay: Activity of Deinococcus radiodurans homoisocitrate dehydrogenase

Chain of Homoisocitrate dehydrogenase, mitochondrial (Saccharomyces cerevisiae S288c) (P40495 whole entry): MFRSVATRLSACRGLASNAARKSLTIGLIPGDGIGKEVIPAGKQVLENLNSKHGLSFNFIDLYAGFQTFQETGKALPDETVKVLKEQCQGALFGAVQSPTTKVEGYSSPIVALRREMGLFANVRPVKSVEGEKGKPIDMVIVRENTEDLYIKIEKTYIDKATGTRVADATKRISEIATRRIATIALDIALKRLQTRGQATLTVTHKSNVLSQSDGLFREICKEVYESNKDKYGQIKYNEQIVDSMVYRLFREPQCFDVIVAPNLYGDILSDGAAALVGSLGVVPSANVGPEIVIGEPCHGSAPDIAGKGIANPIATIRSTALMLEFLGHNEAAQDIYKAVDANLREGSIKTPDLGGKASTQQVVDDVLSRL

Row | Activity [1] | Activity (Deinococcus radiodurans [2]) | kcat/Km (Deinococcus radiodurans [3]) [M⁻¹ s⁻¹] | Km (Deinococcus radiodurans [4]) [µM] | kcat (Deinococcus radiodurans [4]) [s⁻¹] | Compound
1 | inactive | inactive | – | – | – | NCCC[C@H](C(=O)O)[C@@H](O)C(=O)O
2 | – | – | 290000 | 140 | 40 | O=C(O)CCCC[C@H](C(=O)O)[C@@H](O)C(=O)O
3 | – | – | 200000 | 510 | 29 | O=C(O)[C@@H](CCCO)[C@@H](O)C(=O)O
4 | – | – | 68000 | 780 | 53 | CCC[C@H](C(=O)O)[C@@H](O)C(=O)O
5 | – | – | 430000 | 1000 | 43 | CC[C@H](C(=O)O)[C@@H](O)C(=O)O
6 | – | – | 9300 | 83 | 0.77 | C=C[C@H](C(=O)O)[C@@H](O)C(=O)O
7 | – | – | 1100 | 2700 | 3 | C=CCCC[C@H](C(=O)O)[C@@H](O)C(=O)O
8 | inactive | – | – | – | – | CC(C)[C@H](C(=O)O)[C@@H](O)C(=O)O
9 | – | – | 42000 | 590 | 25 | O=C(O)[C@@H](CCO)[C@@H](O)C(=O)O
10 | inactive | inactive | – | – | – | O=C(O)C[C@@H](O)C(=O)O
11 | – | – | 13000 | 2800 | 37 | C=CC[C@H](C(=O)O)[C@@H](O)C(=O)O
12 | inactive | inactive | – | – | – | O=C(O)[C@@H](O)[C@@H](O)C(=O)O
13 | inactive | inactive | – | – | – | O=C(O)[C@H](O)[C@@H](C(=O)O)c1ccccc1
14 | – | – | 60000 | 470 | 28 | O=C(O)[C@@H](CCCCO)[C@@H](O)C(=O)O
15 | inactive | – | – | – | – | O=C(O)C[C@H](C(=O)O)[C@@H](O)C(=O)O
16 | – | – | 5300 | 3600 | 19 | C[C@H](C(=O)O)[C@@H](O)C(=O)O
17 | – | – | 1200 | 3200 | 3.7 | CCCCC[C@H](C(=O)O)[C@@H](O)C(=O)O
18 | – | – | 200000 | 200 | 40 | O=C(O)CCC[C@H](C(=O)O)[C@@H](O)C(=O)O

Reference: ChEMBL document CHEMBL1142886, “Substrate specificity analysis and inhibitor design of homoisocitrate dehydrogenase” (Bioorg Med Chem, 2007)
